Results taken from patent publication US7183314B1, “Compound for treatment of anxiety and methods of preparation and use thereof” (Naturon Limited, priority 2000, dated 2007).

Assays:
[1] = system: Male ICR mice; assay: Locomotor activity test; type: in vivo; details: oral; for Locomotor Activity Score: 5 minute period
Procedure: (§1) Male ICR mice weighing 18–23 g were used. They were housed in groups of four or five with free access to food and water and maintained on a 11 hour light: 13 hour dark cycle. All of the experimental groups, except acute lethal activity test (10 mice of either sex) have 16 animals per group.
(§2) For the chronic test, mice received 5 days pretreatment before the test. Flumazenil (Ro15-1788) was administrated intraperitoneally (IP) 15 minutes before testing in an injection volume of 12.5 ml/kg.
A ZIL-2 apparatus (Beijing Institute of Materia Medica) with dimensions 60×60×12 cm was used. It consists of four circular plastic boxes with diameter 25 cm and each has 6 equally distributed infrared photocells. The locomotor activity was counted automatically during a 5 minute period of test. An increase in the number of transitions reflects an increased locomotor activity.

[2] = system: Male ICR mice; assay: Holeboard test; type: in vivo; details: oral; for Head-dip Number / Head-dip Time: 5 minutes
Procedure: as §1, §2
The holeboard was a wooden box, 60×60×30 cm, with four holes of 3 cm diameter equally spaced in the floor. Mice were placed in the center of the holeboard and the number of head-dips, the time spent head-dipping were counted during 5 minutes (File, S. E., and Pellow, S., Br J Pharmacol 86: 729–735, 1985). Mice were allocated to different test groups randomly, and tested in an randomized order of drug treatment between 8 A.M. and 12 P.M. in a room lit by dim light. After each trial, the floor of the apparatus was wiped and dried thoroughly with tissue to remove traces of the previous path. An increase in the number and time spent head-dipping in this test are indicative of a greater exploratory activity. Conversely, a decrease in any of these parameters compared to controls is symptomatic of sedated behavior (Nolan, N. A., and Parkes, M. W., Psychopharmacol 29: 277–288, 1973; File, S. E., and Wardill, A. G., Psychopharmacol 44: 53–59, 1975; File, S. E., and Pellow, S., Psychopharmacol 88:1–11, 1986).

[3] = system: Male ICR mice; assay: Elevated plus-maze; type: in vivo; details: for Total (total number of arm entries): 5 minute test
Procedure: as §1, §2
The elevated plus-maze was made of wood and consisted of two open arms (25×5 cm) and two opposite arms enclosed by 20 cm high walls. The arms extended from a central platform (5×5 cm). The plus-maze was elevated to a height of 40 cm. The maze was put inside a box 30×30×50 cm. […] The number of entries into and the time spent on the open and closed arms were counted. The total number of arm entries provided a measure of general activity, and anxiety reduces the number of such entries. At the end of the test, the number of entries into open arms was expressed as a percentage of the total number of arm entries. The time spent on the open arms was also expressed as a percentage of time spent on both the open and closed arms. Testing took place between 8 A.M. and 12 P.M. Mice were randomly allocated to different test groups, and tested in a randomized order of drug treatment in a room lit by dim light. After each trial, the floor of the apparatus was wiped and dried thoroughly with tissue to remove traces of the previous path.

[4] = system: Male ICR mice; assay: Horizontal wire test; type: in vivo; details: up to 30 mg/kg, 1 hour after oral administration, FIG. 5
Procedure: as §1, §2
Mice were lifted by the tail and allowed to grasp a horizontally strung wire (1 mm diameter, 15 cm long and placed 20 cm above the table) with their forepaws and released (Bonetti, E. P., et al., Psychopharmacol 78: 8–18, 1982). […] After two trials performed at 5 minute intervals, the test took place. A myorelaxant drug impairs the capacity of the mice to grasp the wire. Such muscle relaxation is commonly associated with sedation.

[5] = Acute lethal activity test; details: both sexes, ICR, mouse, in vivo; in mice
Procedure: as §1

[6] = system: BZD-S of the GABAA-receptor; details: as variously reported; cited from earlier work
[7] = Acute, 1 hour before test, 3.75 mg/kg
[8] = Acute, 1 hour before test, 7.5 mg/kg
[9] = Acute, 1 hour before test, 15 mg/kg
[10] = Acute, 1 hour before test, 30 mg/kg
[11] = Chronic (5 days pretreatment), 3.75 mg/kg
[12] = Chronic (5 days pretreatment), 7.5 mg/kg
[13] = Chronic (5 days pretreatment), 15 mg/kg
[14] = Chronic (5 days pretreatment), 30 mg/kg
[15] = Acute, 1 hour before test, 1 mg/kg
[16] = Chronic (5 days pretreatment), 1 mg/kg

**Q.** With `COc1c(O)cc(O)c2c(=O)cc(-c3ccccc3)oc12` [wogonin] as the compound, how does the “Locomotor Activity Score” value [1, 7] read?
**A.** The value was 189.44 ± 6.54.

**Q.** And the “Locomotor Activity Score” value [1, 8]?
**A.** Its value is 205.63 ± 13.11.

**Q.** What about the “Locomotor Activity Score” value [1, 9] of the same compound?
**A.** Its value is 207.38 ± 10.12.

**Q.** What about the “Locomotor Activity Score” value [1, 10] of the same compound?
**A.** Its value is 193.50 ± 6.39.

**Q.** And the “Locomotor Activity Score” value [1, 11]?
**A.** Its value is 149.75 ± 6.55.

**Q.** What about the “Locomotor Activity Score” value [1, 12] of the same compound?
**A.** Its value is 170.56 ± 12.00.

**Q.** What about the “Locomotor Activity Score” value [1, 13] of the same compound?
**A.** The value was 172.75 ± 6.25.

**Q.** And the “Locomotor Activity Score” value [1, 14]?
**A.** Its value is 184.56 ± 7.88.

**Q.** What about the “Sedative effects (change in motor activity)” value ([1]; up to 30 mg/kg body weight, mice) of the same compound?
**A.** Its value is “did not induce any sedative effects”.

**Q.** What about the “Head-dip Number” value [2, 7] of the same compound?
**A.** Its value is 23.88 ± 1.08.

**Q.** And the “Head-dip Time” value [2, 7]?
**A.** Its value is 27.00 ± 1.10.

**Q.** And the “Head-dip Number” value [2, 8]?
**A.** Its value is 31.06 ± 1.88.

**Q.** What about the “Head-dip Time” value [2, 8] of the same compound?
**A.** Its value is 36.38 ± 1.93.

**Q.** And the “Head-dip Number” value [2, 9]?
**A.** Its value is 37.00 ± 1.94.

**Q.** What about the “Head-dip Time” value [2, 9] of the same compound?
**A.** Its value is 42.25 ± 2.54.

**Q.** And the “Head-dip Number” value [2, 10]?
**A.** The value was 42.75 ± 3.58.

**Q.** What about the “Head-dip Time” value [2, 10] of the same compound?
**A.** The value was 48.19 ± 3.92.

**Q.** What about the “Head-dip Number” value [2, 11] of the same compound?
**A.** The value was 23.88 ± 1.86.

**Q.** And the “Head-dip Time” value [2, 11]?
**A.** Its value is 26.88 ± 1.95.

**Q.** And the “Head-dip Number” value [2, 12]?
**A.** The value was 32.31 ± 1.80.

**Q.** And the “Head-dip Time” value [2, 12]?
**A.** Its value is 38.00 ± 0.79.

**Q.** What about the “Head-dip Number” value [2, 13] of the same compound?
**A.** Its value is 32.81 ± 2.27.

**Q.** And the “Head-dip Time” value [2, 13]?
**A.** Its value is 37.38 ± 2.32.

**Q.** And the “Head-dip Number” value [2, 14]?
**A.** Its value is 30.13 ± 1.59.

**Q.** And the “Head-dip Time” value [2, 14]?
**A.** The value was 35.88 ± 1.81.

**Q.** And the “Sedative effect (holeboard)” value ([2]; up to 30 mg/kg, mice)?
**A.** Its value is “did not induce a significant sedative effect”.

**Q.** And the “Anxiolytic effects: open arm entries (acute), % time spent in open arms (acute), % open arm entries (chronic)” value ([3]; 7.5, 15 or 30 mg/kg, oral, mice, FIG. 3)?
**A.** Its value is “significant anxiolytic effects”.

**Q.** What about the “Total (total number of arm entries)” value ([3]; Acute, oral, 1 hour before test, 3.75 mg/kg) of the same compound?
**A.** Its value is 34.56 ± 0.97.

**Q.** What about the “Total (total number of arm entries)” value ([3]; Acute, oral, 1 hour before test, 7.5 mg/kg) of the same compound?
**A.** The value was 45.56 ± 1.71.

**Q.** And the “Total (total number of arm entries)” value ([3]; Acute, oral, 1 hour before test, 15 mg/kg)?
**A.** Its value is 43.50 ± 1.90.

**Q.** What about the “Total (total number of arm entries)” value ([3]; Acute, oral, 1 hour before test, 30 mg/kg) of the same compound?
**A.** The value was 47.00 ± 1.93.

**Q.** And the “Total (total number of arm entries)” value ([3]; Chronic (5 days pretreatment), oral, 3.75 mg/kg)?
**A.** Its value is 27.56 ± 1.90.

**Q.** And the “Total (total number of arm entries)” value ([3]; Chronic (5 days pretreatment), oral, 7.5 mg/kg)?
**A.** The value was 31.75 ± 2.07.

**Q.** And the “Total (total number of arm entries)” value ([3]; Chronic (5 days pretreatment), oral, 15 mg/kg)?
**A.** Its value is 31.56 ± 2.13.

**Q.** What about the “Total (total number of arm entries)” value ([3]; Chronic (5 days pretreatment), oral, 30 mg/kg) of the same compound?
**A.** The value was 31.31 ± 1.77.

**Q.** And the “Anxiolytic effect of wogonin after treatment with Flumazenil Ro15-1788” value ([3]; Flumazenil Ro15-1788 2.5 mg/kg IP 15 minutes before testing, mice, FIG. 4)?
**A.** Its value is “completely abolished”.

**Q.** And the Myorelaxant effects [4]?
**A.** The Myorelaxant effects was “devoid of myorelaxant effects”.

**Q.** And the LD50 [5]?
**A.** Its LD50 is ~4000 mg/kg.

**Q.** And the “Binding affinity to the BZD-S of the GABAA-receptor” value [6]?
**A.** Its value is “weak or moderate”.

**Q.** Which “Locomotor Activity Score” value [1, 15] does the source give for `CN1C(=O)CN=C(c2ccccc2)c2cc(Cl)ccc21` [diazepam, reference compound] here?
**A.** The value was 225.29 ± 15.80.

**Q.** What about the “Locomotor Activity Score” value [1, 16] of the same compound?
**A.** The value was 195.25 ± 13.03.

**Q.** What about the “Head-dip Number” value [2, 15] of the same compound?
**A.** The value was 28.88 ± 2.16.

**Q.** What about the “Head-dip Time” value [2, 15] of the same compound?
**A.** The value was 37.00 ± 0.79.

**Q.** What about the “Head-dip Number” value [2, 16] of the same compound?
**A.** Its value is 31.94 ± 3.57.

**Q.** What about the “Head-dip Time” value [2, 16] of the same compound?
**A.** The value was 36.50 ± 3.59.

**Q.** What about the “Total (total number of arm entries)” value ([3]; Acute, oral, 1 hour before test, 1 mg/kg) of the same compound?
**A.** Its value is 45.13 ± 2.31.

**Q.** What about the “Total (total number of arm entries)” value ([3]; Chronic (5 days pretreatment), oral, 1 mg/kg) of the same compound?
**A.** The value was 29.38 ± 2.67.
